Test [1] deals with Staphylococcus aureus ATCC29213. As to the kind of experiment: Radial diffusion assay (RDA), S. aureus. Format: cell-based. The following applies: Table 1b; 10 mM Tris Hcl (pH 7.4). As for the experimental part: (§1) Peptides. Peptides were from Sigma-Genosys, generated by a peptide synthesis platform (PEPscreen®, Custom Peptide Libraries, SigmaGenosys). Yield was ˜1-6 mg, and peptide length 20 amino acids. MALDI-ToF Mass Spectrometry was perfomed on these peptides. Average Crude Purity of 20mers was ˜60%. Peptides were supplied lyophilized and in a 96-well tube rack. Prior to biological testing the PEPscreen peptides were diluted in dH2O (5 mM stock), and stored at −20 C. This stock solution was used for the subsequent experiments.
(§2) Eschericia coli ATCC25922, Staphylococcus aureus ATCC29213, and the fungal isolate Candida albicans ATCC90028 were obtained from the Department of Bacteriology, Lund University Hospital.
(§3) Radial diffusion assays (RDA) were performed essentially as described earlier (Lehrer, R. I., Rosenman, M., Harwig, S. S., Jackson, R. & Eisenhauer, P. (1991) Ultrasensitive assays for endogenous antimicrobial polypeptides, J Immunol Methods. 137, 167-73). Briefly, bacteria (E. coli, S. aureus) or fungi (C. albicans) were grown to midlogarithmic phase in 10 ml of full-strength (3% w/v) trypticase soy broth (TSB) (Becton-Dickinson, Cockeysville, Md.). The microorganisms were washed once with 10 mM Tris, pH 7.4. 4×10^6 bacterial cfu or 1×10^5 fungal cfu was added to 5 ml of the underlay agarose gel, consisting of 0.03% (w/v) TSB, 1% (w/v) low-electroendoosmosistype (Low-EEO) agarose (Sigma, St Louise Mo.) and a final concentration of 0.02% (v/v) Tween 20 (Sigma). The underlay was poured into a Ø 85 mm petri dish. After agarose solidified, 4 mm-diameter wells were punched and 6 μl of test sample was added to each well. Plates were incubated at 37° C. for 3 hours to allow diffusion of the peptides. The underlay gel was then covered with 5 ml of molten overlay (6% TSB and 1% Low-EEO agarose in dH2O). Antimicrobial activity of a peptide is visualized as a clear zone around each well after 18-24 hours of incubation at 37° C. for bacteria and 28° C. for Candida albicans. Other examples of peptides that were screened and found to show an increased effect against the above mentioned microorgansism are listed below. Some of the results are found in table 1c showing the effects against C. albicans, table 1d E. coli and table 1e S. aureus.

Test [2] relates to Eschericia coli ATCC25922. As to the kind of experiment: Radial diffusion assay (RDA), E. coli. It is filed as cell-based, Escherichia coli. The following applies: Table 1b; 10 mM Tris Hcl (pH 7.4). As for the experimental part:
as §1, §2, §3

On to KNKGKKNWWW [Peptide T5], for which the “RDA values (mm) S. aureus ATCC 29213” value in test [1] is listed as 2.85 mm. Moreover, the “RDA values (mm) E. coli ATCC 25922” value in test [2] was 8.36 mm.

For KNKGKKNWWWWW [Peptide T16], the “RDA values (mm) S. aureus ATCC 29213” value in test [1] was found to be 3.83 mm. For the same substance, the “RDA values (mm) E. coli ATCC 25922” value in test [2] turned out to be 9.09 mm.

As to KNKGKKWWW [Peptide T6], in test [1], the “RDA values (mm) S. aureus ATCC 29213” value stood at 2.79 mm. Also, in test [2], the “RDA values (mm) E. coli ATCC 25922” value is listed as 8.16 mm.

With KNKGKKWWWWW [Peptide T17], in test [1], the “RDA values (mm) S. aureus ATCC 29213” value worked out at 3.88 mm. Also, the “RDA values (mm) E. coli ATCC 25922” value in test [2] is on record as 8.98 mm.

With KNKGKWWW [Peptide T7], in test [1], the “RDA values (mm) S. aureus ATCC 29213” value was determined as 0.00 mm. Moreover, in test [2], the “RDA values (mm) E. coli ATCC 25922” value was 6.84 mm.

For KNKGKWWWWW [Peptide T18], the “RDA values (mm) S. aureus ATCC 29213” value in test [1] is recorded as 1.82 mm. For the same substance, the “RDA values (mm) E. coli ATCC 25922” value in test [2] turned out to be 8.21 mm.

For the substance KNKGWWW [Peptide T8], the “RDA values (mm) S. aureus ATCC 29213” value in test [1] is given as 0.00 mm. Further, in test [2], the “RDA values (mm) E. coli ATCC 25922” value is on record as 2.94 mm.

Regarding KNKGWWWWW [Peptide T19], the “RDA values (mm) S. aureus ATCC 29213” value in test [1] is recorded as 1.10 mm. In test [2], the “RDA values (mm) E. coli ATCC 25922” value was determined as 4.49 mm.

Turning to KNKWWW [Peptide T9], the “RDA values (mm) S. aureus ATCC 29213” value in test [1] was 0.00 mm. Further, the “RDA values (mm) E. coli ATCC 25922” value in test [2] was determined as 2.73 mm.

Consider KNKWWWWW [Peptide T20], for which the “RDA values (mm) S. aureus ATCC 29213” value in test [1] is reported as 0.55 mm. Moreover, in test [2], the “RDA values (mm) E. coli ATCC 25922” value worked out at 4.22 mm.

For the substance KNWWW [Peptide T10], the “RDA values (mm) S. aureus ATCC 29213” value in test [1] is on record as 0.00 mm. For the same substance, in test [2], the “RDA values (mm) E. coli ATCC 25922” value turned out to be 2.69 mm.

Regarding KNWWWWW [Peptide T21], in test [1], the “RDA values (mm) S. aureus ATCC 29213” value was 0.00 mm. In addition, the “RDA values (mm) E. coli ATCC 25922” value in test [2] was found to be 1.70 mm.

Take KWWW [Peptide T11]: the “RDA values (mm) S. aureus ATCC 29213” value in test [1] was determined as 0.00 mm. Moreover, the “RDA values (mm) E. coli ATCC 25922” value in test [2] was 0.00 mm.

As for KWWW [Peptide T56], the “RDA values (mm) S. aureus ATCC 29213” value in test [1] stood at 0.75 mm. In test [2], the “RDA values (mm) E. coli ATCC 25922” value stood at 4.48 mm.

As to KWWWWW [Peptide T22], the “RDA values (mm) S. aureus ATCC 29213” value in test [1] is listed as 0.00 mm. In test [2], the “RDA values (mm) E. coli ATCC 25922” value worked out at 2.18 mm.

As to NGKHWWW [Peptide T29], the “RDA values (mm) S. aureus ATCC 29213” value in test [1] is 0.00 mm. Also, the “RDA values (mm) E. coli ATCC 25922” value in test [2] is 0.00 mm.

Turning to NKGKKNGKHWWW [Peptide T24], in test [1], the “RDA values (mm) S. aureus ATCC 29213” value amounted to 2.41 mm. Besides, in test [2], the “RDA values (mm) E. coli ATCC 25922” value is 8.44 mm.

With SNSGSSNGSH [Peptide T43], the “RDA values (mm) S. aureus ATCC 29213” value in test [1] is on record as 0.00 mm. For the same substance, the “RDA values (mm) E. coli ATCC 25922” value in test [2] is 0.00 mm.

As to SNSGSSNGSHWWW [Peptide T44], in test [1], the “RDA values (mm) S. aureus ATCC 29213” value is 0.00 mm. Moreover, the “RDA values (mm) E. coli ATCC 25922” value in test [2] is recorded as 0.00 mm.

In the case of SSSSSSSSSS [Peptide T57], the “RDA values (mm) S. aureus ATCC 29213” value in test [1] was 0.00 mm. For the same substance, the “RDA values (mm) E. coli ATCC 25922” value in test [2] came to 0.00 mm.

Consider SSSSSSSSSSWWW [Peptide T58], for which, in test [1], the “RDA values (mm) S. aureus ATCC 29213” value was found to be 0.00 mm. In addition, the “RDA values (mm) E. coli ATCC 25922” value in test [2] is given as 0.00 mm.

As for WWW [Peptide T12], the “RDA values (mm) S. aureus ATCC 29213” value in test [1] came to 0.00 mm. The “RDA values (mm) E. coli ATCC 25922” value in test [2] is 0.00 mm.

In the case of WWWK [Peptide T42], the “RDA values (mm) S. aureus ATCC 29213” value in test [1] is given as 0.00 mm. In test [2], the “RDA values (mm) E. coli ATCC 25922” value is given as 0.00 mm.

For the substance WWWKN [Peptide T41], the “RDA values (mm) S. aureus ATCC 29213” value in test [1] is listed as 0.00 mm. Further, in test [2], the “RDA values (mm) E. coli ATCC 25922” value was determined as 0.00 mm.

In the case of WWWKNK [Peptide T40], in test [1], the “RDA values (mm) S. aureus ATCC 29213” value was determined as 0.00 mm. Besides, the “RDA values (mm) E. coli ATCC 25922” value in test [2] is given as 0.00 mm.

On to WWWKNKG [Peptide T39], for which the “RDA values (mm) S. aureus ATCC 29213” value in test [1] worked out at 0.00 mm. In test [2], the “RDA values (mm) E. coli ATCC 25922” value was determined as 0.00 mm.

Regarding WWWKNKGK [Peptide T38], in test [1], the “RDA values (mm) S. aureus ATCC 29213” value is 0.00 mm. In test [2], the “RDA values (mm) E. coli ATCC 25922” value amounted to 1.42 mm.

As to WWWKNKGKK [Peptide T37], the “RDA values (mm) S. aureus ATCC 29213” value in test [1] is 0.11 mm. For the same substance, in test [2], the “RDA values (mm) E. coli ATCC 25922” value stood at 3.28 mm.

With WWWKNKGKKN [Peptide T36], the “RDA values (mm) S. aureus ATCC 29213” value in test [1] turned out to be 0.66 mm. For the same substance, the “RDA values (mm) E. coli ATCC 25922” value in test [2] was 5.04 mm.

Regarding WWWKNKGKKNG [Peptide T35], the “RDA values (mm) S. aureus ATCC 29213” value in test [1] turned out to be 0.00 mm. The “RDA values (mm) E. coli ATCC 25922” value in test [2] was determined as 1.57 mm.

Take WWWKNKGKKNGK [Peptide T34]: in test [1], the “RDA values (mm) S. aureus ATCC 29213” value is 0.43 mm. In test [2], the “RDA values (mm) E. coli ATCC 25922” value came out at 4.94 mm.

With WWWKNKGKKNGKH [Peptide T33], the “RDA values (mm) S. aureus ATCC 29213” value in test [1] is 2.20 mm. For the same substance, the “RDA values (mm) E. coli ATCC 25922” value in test [2] is 7.95 mm.

For WWWSNSGSSNGSH [Peptide T45], the “RDA values (mm) S. aureus ATCC 29213” value in test [1] was determined as 0.00 mm. In addition, the “RDA values (mm) E. coli ATCC 25922” value in test [2] is 0.00 mm.

For the origin of these results see patent US8227406B2, “Antimicrobial peptides” (Dermagen AB, priority 2006, dated 2012).
